{"source": "patent US9671412B2", "about": "“Beclin 1 phosphorylation” (Board of Regents, The University of Texas System, priority 2012, dated 2017)", "key": {"GST-Akt1": {"target": "T1, GST-Akt1 (Homo sapiens, UniProt P31749)", "T1 construct": "GST", "experiment": "In vitro phosphorylation of Beclin 1 S295 by GST-Akt1", "type": "biochemical", "conditions": "in vitro kinase reaction", "source_text": "(§1) We examined whether autophagy execution proteins could be targets of Akt. We focused on Beclin 1 because of its role in autophagy and tumor suppression (4)."}, "[1]": {"system": "MCF7 human breast carcinoma cells", "experiment": "Basal autophagy (GFP-LC3) in transfected MCF7 cells", "type": "cell-based", "conditions": "lesser extent with Beclin 1 AA than with wild-type Beclin 1", "source_text": "We transfected MCF7 human breast carcinoma cells [which express low amounts of endogenous Beclin 1 (14)] with GFP-LC3 and wild-type Beclin 1 or Beclin 1 S295A or AA mutants. […] Thus, Akt inhibits basal autophagy both through Beclin 1 phosphorylation-dependent and independent mechanisms."}, "HeLa cells": {"system": "HeLa cells", "experiment": "Autophagy induction in HeLa cells transfected with empty vector or WT EGFR", "type": "cell-based", "source_text": "We investigated the effects of active EGFR mutants that constitutively bind Beclin 1 on autophagy. […] In cells transfected with the active EGFR mutants, L858R or 4746-750, starvation and Torin1 induced lower levels of autophagy. […] Thus, active EGFR mutants suppress autophagy in a manner that is partially independent of mTOR."}, "[2]": {"system": "Beclin 1 S295 / S234 phosphorylation", "experiment": "Phosphorylation of endogenous Beclin 1 S295 and S234 in HeLa cells expressing myr-Akt1", "type": "cell-based", "source_text": "as §1"}, "mTOR": {"system": "mTOR", "experiment": "Phospho-4E-BP1 (mTOR phosphorylation target) in HeLa cells", "type": "cell-based", "conditions": "including those expressing myr-Akt1", "source_text": "We investigated whether Akt inhibits autophagy by directly regulating the core autophagy machinery independently of mTOR. Expression of constitutively active myristoylated (5) and tagged Akt1 (Flag-tagged myr-Akt) in HeLa cells inhibited autophagy during growth in normal medium, in response to serum and amino acid starvation (a physiological inducer of autophagy), in response to treatment with an ATP-competitive inhibitor of mTOR, Torin1 (6), and in response to both starvation and Torin1 treatment. In all conditions, cells expressing myr-Akt1 had decreased numbers of puncta upon transfection with a fusion protein of green fluorescent protein with LC3 (GFP-LC3), a fluorescent marker of autophagosomes; increased amounts of p62 (a substrate that is degraded by autophagy); and increased amounts of the cytosolic non-lipidated form of LC3, LC3-I, and of total LC3 (7). Amounts of phospho-4E-BP1, a phosphorylation target of mTOR, were decreased in Torin1-treated cells, including those expressing myr-Akt1."}, "H1975 cells": {"system": "H1975 cells", "experiment": "Autophagy (GFP-LC3 puncta, LC3-II, p62) in H1975 NSCLC cells", "type": "cell-based, human", "source_text": "(§2) To evaluate whether EGFR activation inhibits autophagy, we used a human non-small cell lung carcinoma (NSCLC) cell line, A549, that express wild-type (WT) EGFR (VanMeter et al., 2008). We measured autophagy by examining the subcellular localization of a green fluorescent autophagy reporter protein, GFP-LC3, and by measuring levels of LC3-II, the autophagosome-associated lipidated form of LC3, and p62, an autophagic substrate (Mizushima et al., 2010).\nWe investigated whether this mechanism underlies EGFR regulation of autophagy in NSCLC cells with activating mutations in EGFR. We used two NSCLC lines: HCC827 cells have the Δ746-750 EGFR activating mutation and are TKI-sensitive, and H1975 cells have the L858R EGFR activating mutation and are TKI-resistant due to a T790M mutation. First, we evaluated if TKI treatment induces autophagy; […]. Thus, TKI therapy disrupts the EGFR/Beclin 1 complex and induces autophagy in TKI-sensitive but not TKI-resistant cells."}, "[3]": {"system": "EGFR Δ746-750 (HCC827 cells)", "source_text": "(§3) We investigated whether this mechanism underlies EGFR regulation of autophagy in NSCLC cells with activating mutations in EGFR. We used two NSCLC lines: HCC827 cells have the Δ746-750 EGFR activating mutation and are TKI-sensitive, and H1975 cells have the L858R EGFR activating mutation and are TKI-resistant due to a T790M mutation."}, "HCC827 cells": {"system": "HCC827 cells", "experiment": "Autophagy (GFP-LC3 puncta, LC3-II, p62) in HCC827 NSCLC cells", "type": "cell-based, human", "source_text": "as §3"}, "HCC827 xenografts": {"system": "HCC827 xenografts", "experiment": "HCC827 tumor xenografts under TKI therapy", "type": "in vivo", "conditions": "control mice without induction or with induced WT Beclin 1", "source_text": "as §3"}, "[4]": {"system": "EGFR L858R/T790M (H1975 cells)", "experiment": "EGFR signalling, Beclin 1 interactome and Beclin 1 tyrosine phosphorylation in H1975 cells", "type": "cell-based, human", "source_text": "as §3"}, "[5]": {"system": "myr-Akt1-expressing Rat2 cell tumors", "experiment": "Tumors of myr-Akt1-expressing Rat2 cells in NOD SCID mice", "type": "in vivo", "conditions": "co-expressed with myr-Akt1 in Rat2 cells", "source_text": "To examine the role of Akt-mediated Beclin 1 phosphorylation in Akt-driven tumorigenesis, we transduced Rat2 fibroblasts with myr-Akt1 (which transforms rat fibroblasts (15)) and either wild-type Beclin 1 or Beclin 1 phosphorylation site mutants. Myr-Akt1 suppressed autophagy in Rat2 fibroblasts, reduced co-immunoprecipitation of Class III PI3K Vps34 with Beclin 1, and decreased Beclin 1-associated lipid kinase activity. […] Expression of myr-Akt1 had minimal effects on the interaction of Beclin 1 AA and Vps34 or on the amounts of Beclin 1 AA-associated Vps34 activity. Thus, myr-Akt1 suppresses Beclin 1-associated Vps34 activity and autophagy in a manner that is partially reversed by a Beclin 1 mutant resistant to Akt-mediated phosphorylation.\nAll myr-Akt1-expressing Rat2 cells formed tumors in immunodeficient NOD SCID® mice, but tumor growth rate and tumor mass upon necropsy were less for cells expressing Beclin 1 AA than for cells expressing wild-type Beclin 1 or myr-Akt1 alone. Tumors expressing myr-Akt1 alone had numerous cells displaying p62 immunoreactivity (indicating autophagy suppression) whereas very few p62 immunoreactive cells were detected in tumors from cells expressing both myr-Akt1 and Beclin 1 AA. […] Tumors expressing active Akt alone or with Beclin 1 had higher mean mitotic counts (n=8.39; n=8.37, respectively) than tumors expressing myr-Akt1 and Beclin 1 AA (n=3.67) (P<0.0001). They also had increased Ki-67 labeling, and decreased TUNEL staining. Thus, the expression of a mutant of Beclin 1 that cannot be phosphorylated by Akt increases tumor cell autophagy, decreases tumor growth rate and size, decreases tumor cellular proliferation, and increases tumor cell death."}, "[6]": {"system": "A549 cells (wild-type EGFR)", "experiment": "Autophagy in serum-starved A549 cells", "type": "cell-based, human", "conditions": "addition for 30 min", "source_text": "as §2"}}, "note": "Entries after “also recorded” stand apart in the source; their conditions may differ.", "data": [{"compound": "CCN(CC)CCCCN1c2ccccc2Oc2ccc(Cl)cc21", "note": "[Akt inhibitor X]", "values": [{"measurement": "GST-Akt1 phosphorylation of Beclin 1 S295 in vitro", "setting": "GST-Akt1", "value": "partially blocked"}]}, {"compound": "NC1(c2ccc(-c3nc4ccn5c(=O)[nH]nc5c4cc3-c3ccccc3)cc2)CCC1", "note": "[MK-2206]", "values": [{"measurement": "GST-Akt1 phosphorylation of Beclin 1 S295 in vitro", "setting": "GST-Akt1", "value": "partially blocked"}, {"measurement": "basal autophagy", "setting": "[1]", "value": "increased basal autophagy"}]}, {"compound": "CCC(=O)N1CCN(c2ccc(-n3c(=O)ccc4cnc5ccc(-c6cnc7ccccc7c6)cc5c43)cc2C(F)(F)F)CC1", "note": "[Torin1]", "values": [{"measurement": "autophagy", "setting": "HeLa cells", "value": "induced autophagy"}, {"measurement": "myr-Akt1-driven phosphorylation of endogenous Beclin 1 S295 and S234", "setting": "[2]", "value": "not reversed"}, {"measurement": "amounts of phospho-4E-BP1", "setting": "mTOR", "value": "decreased"}]}, {"compound": "C#Cc1cccc(Nc2ncnc3cc(OCCOC)c(OCCOC)cc23)c1", "note": "[erlotinib]", "values": [{"measurement": "LC3-II conversion and p62 degradation", "setting": "H1975 cells; H1975 cells", "value": "not"}, {"measurement": "GFP-LC3 puncta", "setting": "H1975 cells; H1975 cells stably transfected with GFP-LC3", "value": "not"}, {"measurement": "Beclin 1/EGFR interaction", "setting": "[3]", "value": "blocked; also recorded: disruption of EGFR/Beclin 1 binding"}, {"measurement": "Beclin 1 tyrosine phosphorylation", "setting": "[3]", "value": "decreased"}, {"measurement": "EGFR phosphorylation", "setting": "[3]", "value": "EGFR dephosphorylation"}, {"measurement": "endogenous Beclin 1 Y233 phosphorylation", "setting": "[3]; phosphospecific antibody", "value": "blocked"}, {"measurement": "LC3-II conversion and p62 degradation", "setting": "HCC827 cells; HCC827 cells", "value": "demonstrated LC3-II conversion and p62 degradation"}, {"measurement": "GFP-LC3 puncta", "setting": "HCC827 cells; HCC827 cells stably transfected with GFP-LC3", "value": "increased GFP-LC3 puncta in a dose-dependent manner"}, {"measurement": "time to complete regression of all tumor xenografts", "setting": "HCC827 xenografts", "value": "≤ 14", "unit": "days"}, {"measurement": "Beclin 1/EGFR interaction", "setting": "[4]", "value": "not"}, {"measurement": "endogenous Beclin 1 Y233 phosphorylation", "setting": "[4]; phosphospecific antibody", "value": "not"}]}, {"compound": "Beclin 1 AA: Beclin 1 double mutation S234A/S295A, cannot be phosphorylated by Akt; expressed in cells", "values": [{"measurement": "mean mitotic counts of tumors", "setting": "[5]", "value": 3.67}, {"measurement": "tumors displaying degenerative features with numerous pyknotic nuclei", "setting": "[5]", "value": 60, "unit": "%"}]}, {"compound": "Beclin 1: wild-type human Beclin 1, essential autophagy and tumor suppressor protein; expressed in cells", "values": [{"measurement": "mean mitotic counts of tumors", "setting": "[5]", "value": 8.37}]}, {"compound": "epidermal growth factor [EGF, growth factor ligand that triggers EGFR signaling]", "values": [{"measurement": "autophagy induced by serum depletion", "setting": "[6]", "value": "partially reversed autophagy induction"}]}]}
